Consider 7 compounds from patent publication US20100130425A1, “USE OF TOLL-LIKE RECEPTOR LIGANDS IN TREATING EXCITOTOXIC INJURY, ISCHEMIA AND/OR HYPOXIA” (Oregon Health & Science University, priority 2005, published 2010).

Some results are limits rather than exact numbers.

Series [1] has as its system mouse cortical neuronal cultures. Here is the method:
In vitro mouse neuronal cultures: Cortical neuronal cultures were prepared as described Jin et al. (Neurochem. Res. 27:1105-1112, 2002) from E-16 mouse pups (C57B1/6, Jackson labs). Briefly, cortices were dissected and separated from meninges, olfactory bulbs, basal ganglia and hippocampi, and the cortices digested in 0.05% trypsin-EDTA for 15 min at 37° C. Cells were triturated and single cell suspension was plated at density of 5×10^5 cells/ml. Cells were cultured in Neurobasal A medium (Invitrogen, Carlsbad) containing 2% B27, 2 mM Glutamate. Neuronal enrichment was determined by staining for neurons, microglia and astrocytes with cell specific markers.
In vitro neuronal ischemia model: Neuronal cultures were treated with varying doses of an exemplary CpG oligonucleotide (SEQ ID NO: 1) in Neurobasal-A media supplemented with 1% Glutamax 24 hours prior to 3 hours oxygen-glucose-deprivation (OGD) treatment. OGD was performed by replacing medium with PBS containing 0.5 mM CaCl2 and 5 mM MgCl2, pH 7.4, and then placing the neuronal cultures in an anaerobic chamber (Form a Scientific) containing an atmosphere of 85% N2, 5% H2, 10% CO2 maintained at 35° C. Following OGD-treatment (3 hours), PBS was replaced with Minimum Essential Medium (MEM) and the cells returned to normoxic conditions. Percent neuronal cell death was determined by propidium iodide staining in two different fields of view in duplicate, compared to total DAPI staining in identical fields.
In vitro neuronal ischemia model: Neuronal cultures were treated with varying doses (0.1 μg/ml and 1 μg/ml) of Gardiquimod in Neurobasal-A media supplemented with 1% Glutamax 24 hours prior to 3 hours oxygen-glucose-deprivation (OGD) treatment. OGD was performed and cells analyzed as described in Example 1.
OGD was performed and cell analyzed as described in Example 1.

For series [2], the system named is mice subjected to bilateral renal ischemia. In words: In vivo model of renal ischemia (bilateral renal clamping), serum creatinine. More on the design: species or system mouse. Particulars: 48 hours prior to bilateral renal clamping (45 minutes); 48 hours following reperfusion. Here is the method:
Intraperitoneal Delivery: Preconditioning agent Poly I:C (25 μg) in artificial saline or saline alone (control) was administered intraperitoneally to subject mice 72 hours prior to middle cerebral artery occlusion (MCAO; 45 minutes) as described in Example 3 or 48 hours prior to bilateral renal clamping (45 min).
Creatinine levels: To assess renal injury due to the ischemia, creatinine levels were measured 48 hours following reperfusion as follows. Mice were treated with saline or poly I:C (1.6 mg/kg; sc) 48 hrs prior to renal ischemia. Just prior to surgery blood was collected via the saphenous vien for baseline determination of creatinine levels. Bilateral ischemia was induced as follows: mice were anesthestized with 3% isoflurane and maintained at 1.5-2% throughout surgery. A midline incision was made and both kidneys exteriorized and clamps placed on the artery and veins of each kidney for 45 minutes. After ischemia, the clamps were withdrawn inducing reperfusion and the incision sutured up. Mice were euthanized 48 hr post initiation of reperfusion and blood collected. Serum levels of creatinine were determined via a commercially available immunoassay.

In series [3] the test system is mouse cortical neuronal cultures. In words: In vitro neuronal ischemia model, treatment after OGD. In kind it is cell-based. The settings on record: 1 to 100 μg/ml after 3 hours OGD; analyzed 24 hours later. Here is the method: In vitro neuronal ischemia model: Neuronal cultures were exposed to 3 hours oxygen-glucose-deprivation (OGD) treatment as described in Example 1. After OGD, cells were treated with 1 to 100 μg/ml Poly I:C. 24 hours later cells were analyzed as described in Example 1.

The subject of a further series is TNF-α. The series is described as follows: Serum TNF-α in mice, immunoassay. Format: in vivo, mouse. Particulars: 1 mg/kg, 2 hours prior to serum collection. Here is the method:
(§1) Mice were injected with saline, CpG (0.8 mg/kg) LPS (0.4 mg/kg) or Poly I:C (1 mg/kg) 2 hours prior to serum collection. Levels of TNF-α and IFN-β were measured using commercially available immunoassay kits.

The test system of the next series is IFN-β. The series is described as follows: Serum IFN-β in mice, immunoassay. Particulars: 1 mg/kg, 2 hours prior to serum collection; versus CpG 0.8 mg/kg and LPS 0.4 mg/kg. In kind it is in vivo, mouse. Here is the method:
as §1

Series [4] has as its system mice subjected to middle cerebral artery occlusion (MCAO). The series is described as follows: In vivo ischemic/reperfusion model (MCAO), mouse model of stroke.
Procedure: Ischemic/Reperfusion Model. […] Mice were anesthetized by halothane inhalation (4%/L O2) and maintained with 1.5%/L O2. The middle cerebral artery was blocked by a silicone-coated 8-0 monofilament nylon surgical suture that was threaded through the external carotid to the internal carotid and finally blocks the bifurcation into the MCA and anterior cerebral artery. The filament was maintained intraluminally for 45 min and then removed, thereby restoring blood flow. Cerebral blood flow (CBF) was monitored throughout the surgery by laser Doppler flowmetry (Periflow 5000; Perimed, Sweden). During and 2 hours following surgery, body temperatures was kept constant at 37° C. with a heating pad controlled by a thermostat. Body weights were monitored prior to and following MCAO.
Infarct calculations. […] Perfused brains were placed on a tissue slicer and sectioned into 1 mm thick coronal slices.
Another series deals with T1, human TLR9 (Homo sapiens, UniProt Q9NR96).
T1 construct: host or cells: HEK293 (293-hTLR9)
T1 sequence (Q9NR96 26-1032): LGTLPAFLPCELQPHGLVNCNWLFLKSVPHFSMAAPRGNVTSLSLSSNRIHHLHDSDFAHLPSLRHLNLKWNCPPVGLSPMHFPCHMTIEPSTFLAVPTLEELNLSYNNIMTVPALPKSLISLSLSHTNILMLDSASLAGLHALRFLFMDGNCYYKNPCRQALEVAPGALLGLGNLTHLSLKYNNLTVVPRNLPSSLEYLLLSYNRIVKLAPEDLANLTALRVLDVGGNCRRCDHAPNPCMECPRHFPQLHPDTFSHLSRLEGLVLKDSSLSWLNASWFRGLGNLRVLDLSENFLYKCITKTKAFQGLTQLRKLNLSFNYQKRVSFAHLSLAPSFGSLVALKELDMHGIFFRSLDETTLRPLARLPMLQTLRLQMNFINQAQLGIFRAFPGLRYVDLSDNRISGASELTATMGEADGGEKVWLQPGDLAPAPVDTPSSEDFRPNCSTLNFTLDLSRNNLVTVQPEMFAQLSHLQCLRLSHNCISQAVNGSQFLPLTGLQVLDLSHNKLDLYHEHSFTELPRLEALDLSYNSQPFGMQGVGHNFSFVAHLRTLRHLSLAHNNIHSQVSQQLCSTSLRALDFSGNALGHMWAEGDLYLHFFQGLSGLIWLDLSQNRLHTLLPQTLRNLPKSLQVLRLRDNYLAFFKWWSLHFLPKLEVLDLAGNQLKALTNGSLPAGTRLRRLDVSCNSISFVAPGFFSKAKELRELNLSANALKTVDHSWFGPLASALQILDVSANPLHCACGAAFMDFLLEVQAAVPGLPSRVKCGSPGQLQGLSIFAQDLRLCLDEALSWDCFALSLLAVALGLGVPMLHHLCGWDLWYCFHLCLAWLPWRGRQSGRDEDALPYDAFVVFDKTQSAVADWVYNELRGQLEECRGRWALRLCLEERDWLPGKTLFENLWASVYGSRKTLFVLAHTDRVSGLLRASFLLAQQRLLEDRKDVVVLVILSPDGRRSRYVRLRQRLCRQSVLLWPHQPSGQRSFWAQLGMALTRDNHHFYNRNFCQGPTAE
The series is described as follows: NF-κB inducible SEAP reporter in 293-hTLR9 cells. Format: cell-based. The settings on record: 5 μM, 18 hours; hydrolysis of pNpp at 405 nm. How it is done: FIG. 3 is a bar graph illustrating NF-κB induction following in vitro treatment with an exemplary CpG oligonucleotide. 293-hTLR9 cells transfected with an NFκB inducible reporter plasmid (pNifty2-SEAP) were treated with CpG (5 μM). NFκB induction of alkaline phosphatase expression is indicated as hydrolysis of pNpp at 405 nm.
Human embryonic kidney cell line HEK293 was transfected with an expressible nucleic acid encoding human TLR9 and with an NFκB reporter construct (InvivoGen). The dual transfected cells were incubated with a 5 μM CpG oligonucleotide (SEQ ID NO: 1) for 18 hours.

For series [5] the following is noted: cited from earlier work.
Setting [6] is: 0.2-1.6 mg/kg subcutaneous 72 hours prior to 60 minutes MCAO, 24 hours post MCAO.

For the compound “polyinosinic polycytidylic acid [Poly I:C]”, the “cell death without exposure to OGD” value in series [1] (highest dose, no OGD) was “did not induce cell death”. Moreover, the “neuroprotection against oxygen-glucose deprivation (cell death by PI staining)” value in series [1] (mixed cortical cultures, increasing doses 24 hours prior to OGD) is recorded as “induces neuroprotection against oxygen-glucose deprivation”. For the same compound, the “serum creatinine levels (renal injury)” value in series [2] is recorded as “reduced the injury to baseline levels”. For the same compound, the “neuroprotection, treatment after oxygen-glucose deprivation” value in series [3] is reported as “induces neuroprotection”. The “serum TNFα levels” value in the series on TNF-α is listed as “increases TNFα levels”. For the same compound, the “serum IFNβ levels” value with IFN-β was “produces significantly more IFNβ than stimulation of TLR9 or TLR4”. For the same compound, the percent infarct entry in series [4] (25 μg intraperitoneally 72 hours prior to 45 minutes MCAO, TTC 72 hours following surgery) was “percent infarct was significantly decreased”.

Turning to `CCNCc1nc2c(N)nc3ccccc3c2n1CC(C)(C)O` [Gardiquimod], in series [1] (0.1 or 1 μg/ml 24 hours prior to OGD (3 hours), propidium iodide staining 24 hours following OGD), the “neuroprotection against oxygen-glucose deprivation (% cell death)” value is recorded as “confers neuroprotection against oxygen-glucose deprivation”. For the same compound, in series [4] (0.2-1.6 mg/kg 72 hours prior to 60 minutes MCAO, TTC staining 24 hours later), the “percent infarct (% of hemisphere with infarction)” value is reported as “percent infarct was significantly decreased in a dose-dependent fashion”. In series [4] (setting [6]), the focal neurological deficit result is listed as “reduced neurological deficits” and the general neurological deficit result is “reduced neurological deficits”.

`CC(C)Cn1cnc2c(N)nc3ccccc3c21` [imiquimod]: the infarct size entry in series [4] (mouse, in vivo, ip) is on record as “protects against cell death”.

For `CCOCc1nc2c(N)nc3ccccc3c2n1CC(C)(C)O` [resiquimod], in series [4] (0.8 mg/kg s.c. 72 hours prior to MCAO, 24 hours following MCAO), the infarct size entry was “provides neuroprotection against cerebral ischemia”.

For “5′-tccatgacgttcctgacgtt-3′ [CpG oligonucleotide (SEQ ID NO: 1)]”, the “neuroprotection against oxygen-glucose deprivation (percent neuronal cell death)” value in series [1] (treated 24 hours prior to 3 hours OGD, propidium iodide staining) was “confers neuroprotection against oxygen-glucose deprivation”. Besides, the “NFκB induction of alkaline phosphatase expression” value on human TLR9 is reported as “produced alkaline phosphatase”. For the same compound, the “percent infarct, time course of preconditioning” value in series [4] (20 μg administered between 72 and 24 hours prior to MCAO) is “peak preconditioning”; in series [4] (20 μg administered up to a week prior to MCAO), “significant preconditioning”. Further, the percent infarct result in series [4] (intraperitoneal, 72 hours prior to 45 min MCAO) is “percent infarct was significantly decreased”.

Regarding `CCOCc1nc2c(N)nc3ccccc3c2[nH]1` [CL097], the water solubility in series [5] was no less than 20 mg/mL.

Regarding lipopolysaccharide [LPS], in series [4] (mouse, in vivo, 0.4 mg/kg), the “infarct size (neuroprotection)” value was “no considerable neuroprotection”.
